Measured values from US20240158348A1, “HERBICIDAL CYCLIC AMIDES N-SUBSTITUTED WITH A HALOALKYLSULFONYLANILIDE GROUP” (FMC Corporation, priority 2021, published 2024).

Columns and labels:
Format in all cases: in vivo
[1] = tested on: ragweed (common ragweed, Ambrosia artemisiifolia); test: Test C postemergence, ragweed; conditions: for Ragweed plant response rating: visual injury, 0 to 100 scale (0 no effect, 100 complete control); for Plant response rating (0 to 100 scale), Ragweed: 0 is no effect, 100 is complete control
Outline: (§1)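 Ratings run from 0, meaning no effect, up to 100, meaning complete control, judged by eye against untreated plants. Treatment was a directed soil spray before emergence or a postemergence spray on 2–10 cm seedlings, with evaluation 10 or 12 days later.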

soybean (Glycine max) = test: Test C postemergence, soybean; conditions: for Soybean plant response rating: visual injury, 0 to 100 scale (0 no effect, 100 complete control); for Plant response rating (0 to 100 scale), Soybean: 0 is no effect, 100 is complete control
[2] = tested on: foxtail, giant (giant foxtail, Setaria faberi); test: Test C preemergence, giant foxtail; conditions: 0 is no effect, 100 is complete control
Outline: as §1

[3] = tested on: sedge, umbrella (small-flower umbrella sedge, Cyperus difformis); test: Test D flooded paddy test, umbrella sedge; design: key: 0 = no effect, 100 = complete control; conditions: 250 g ai/ha, Flood; applied to paddy water at 2-leaf stage; visual rating after 13 days; scale 0 (no effect) to 100 (complete control)
Outline: (§2)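 Plants were grown to the 2-leaf stage, then pots were flooded to 3 cm above soil and compounds applied directly into the paddy water, with that depth held throughout. After 13 days in a greenhouse, injury was visually rated against untreated controls on a 0–100 scale (0 no effect, 100 complete control).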

[4] = tested on: barnyardgrass (Echinochloa crusgalli); test: Test D flooded paddy test, barnyardgrass; design: key: 0 = no effect, 100 = complete control; conditions: 250 g ai/ha, Flood; applied to paddy water at 2-leaf stage; visual rating after 13 days; scale 0 (no effect) to 100 (complete control)
Outline: as §2

corn (Zea mays) = test: Test C preemergence, corn; conditions: 0 is no effect, 100 is complete control
Outline: as §1

[5] = tested on: wheat (Triticum aestivum); test: Test C postemergence, wheat; conditions: for Wheat plant response rating: visual injury, 0 to 100 scale (0 no effect, 100 complete control); for Plant response rating (0 to 100 scale), Wheat: 0 is no effect, 100 is complete control
Outline: as §1

[6] = tested on: goosegrass (Eleusine indica); test: Test C preemergence, goosegrass; conditions: 0 is no effect, 100 is complete control
Outline: as §1

[7] = tested on: pigweed, palmer (palmer amaranth, Amaranthus palmeri); test: Test C postemergence, palmer amaranth; conditions: for Pigweed, Palmer plant response rating: visual injury, 0 to 100 scale (0 no effect, 100 complete control); for Plant response rating (0 to 100 scale), Pigweed, Palmer: 0 is no effect, 100 is complete control
Outline: as §1

Row | SMILES | Ragweed plant response rating ([1]; 31 g ai/ha Postemergence) | Plant response rating (0 to 100 scale), Ragweed ([1]; 125 g ai/ha Postemergence) | Soybean plant response rating (soybean (Glycine max); 31 g ai/ha Postemergence) | Plant response rating (0 to 100 scale), Soybean (soybean (Glycine max); 125 g ai/ha Postemergence) | Plant response rating (0 to 100 scale), Foxtail, Giant ([2]; 31 g ai/ha Preemergence) | Plant response rating (0 to 100 scale), Foxtail, Giant ([2]; 125 g ai/ha Preemergence) | Plant response rating, Sedge, Umbrella [3] | Plant response rating, Barnyardgrass [4] | Plant response rating (0 to 100 scale), Corn (corn (Zea mays); 31 g ai/ha Preemergence) | Plant response rating (0 to 100 scale), Corn (corn (Zea mays); 125 g ai/ha Preemergence) | Wheat plant response rating ([5]; 31 g ai/ha Postemergence) | Plant response rating (0 to 100 scale), Wheat ([5]; 125 g ai/ha Postemergence) | Plant response rating (0 to 100 scale), Goosegrass ([6]; 31 g ai/ha Preemergence) | Plant response rating (0 to 100 scale), Goosegrass ([6]; 125 g ai/ha Preemergence) | Pigweed, Palmer plant response rating ([7]; 31 g ai/ha Postemergence) | Plant response rating (0 to 100 scale), Pigweed, Palmer ([7]; 125 g ai/ha Postemergence) | Ragweed plant response rating ([1]; 125 g ai/ha Postemergence) | Soybean plant response rating (soybean (Glycine max); 125 g ai/ha Postemergence) | Wheat plant response rating ([5]; 125 g ai/ha Postemergence) | Pigweed, Palmer plant response rating ([7]; 125 g ai/ha Postemergence)
1 | CC(=O)N(c1cc(N2CCC(OC3CC3)C2=O)c(C)cc1C)S(=O)(=O)C(F)(F)F (stereo not shown) [Compound 17] | 70 | 90 | 60 | 80 | 90 | 100 | 95 | 85 | 70 | 90 | 70 | 70 | 100 | 100 | 40 | 90 | – | – | – | –
2 | Cc1cc(C)c(N2CCC(OCC3CCCC3)C2=O)cc1NS(=O)(=O)C(F)(F)F (stereo not shown) [Compound 57] | 40 | – | 80 | – | 80 | 100 | 95 | 15 | 0 | 50 | 70 | – | 90 | 100 | 40 | – | 60 | 100 | 70 | 70
3 | Cc1c(N2CCCC(OC3CCC3)C2=O)cc(N(COC(=O)C(C)(C)C)S(=O)(=O)C(F)(F)F)c(C)c1F (stereo not shown) [Compound 39] | 30 | – | 50 | – | 0 | 10 | 95 | 35 | 0 | 10 | 0 | – | 10 | 60 | 0 | – | 80 | 90 | 60 | 20
4 | Cc1c(NS(=O)(=O)C(F)(F)F)cc(N2CCC(OCC3CC3)C2=O)c(C)c1F (stereo not shown) [Compound 63] | 40 | – | 50 | – | 100 | 100 | 95 | 45 | 30 | 100 | 10 | – | 100 | 100 | 70 | – | 80 | 100 | 40 | 90
5 | Cc1cc(C)c(N2CC/C(=N\O)C2=O)cc1NS(=O)(=O)C(F)(F)F [Compound 10, 1,1,1-trifluoro-N-[5-[3-(hydroxyimino)-2-oxo-1-pyrrolidinyl]-2,4-dimethylphenyl]methanesulfonamide] | 50 | 50 | 80 | 80 | 90 | 100 | 80 | 0 | 30 | 90 | 80 | 80 | 80 | 100 | 60 | 90 | – | – | – | –
6 | Cc1c(NS(=O)(=O)C(F)(F)F)cc(N2CCCC(OC3CCC3)C2=O)c(C)c1F (stereo not shown) [Compound 36] | 40 | – | 70 | – | 50 | 100 | 95 | 0 | 30 | 90 | 60 | – | 90 | 100 | 30 | – | 90 | 70 | 60 | 70
7 | CCOC(=O)N(c1cc(N2CCC(OC3CC3)C2=O)c(C)cc1C)S(=O)(=O)C(F)(F)F (stereo not shown) [Compound 19] | 60 | 90 | 80 | 80 | 0 | 10 | 0 | 0 | 0 | 0 | 0 | 10 | 0 | 70 | 0 | 10 | – | – | – | –
8 | Cc1c(N2CCC(OC3CC3)C2=O)cc(N(COC(=O)C(C)(C)C)S(=O)(=O)C(F)(F)F)c(C)c1C (stereo not shown) [Compound 49] | 70 | – | 60 | – | 20 | 90 | 90 | 100 | 0 | 50 | 70 | – | 60 | 90 | 10 | – | 90 | 80 | 70 | 50
9 | Cc1cc(C)c(N2CCC(OCc3ccccc3)C2=O)cc1NS(=O)(=O)C(F)(F)F (stereo not shown) [Compound 61] | 50 | – | 60 | – | 100 | 100 | 90 | 95 | 20 | 100 | 70 | – | 100 | 100 | 50 | – | 80 | 90 | 80 | 80
10 | Cc1cc(C)c(N(COC(=O)C(C)(C)C)S(=O)(=O)C(F)(F)F)cc1N1CCC(OCC2CC2(F)F)C1=O (stereo not shown) [Compound 54] | 50 | – | 50 | – | 0 | 80 | 98 | 45 | 0 | 30 | 30 | – | 20 | 100 | 0 | – | 80 | 60 | 70 | 50
